Measured values published in patent US11535611B2, “Pyrazolo[3,4-B]pyridines and imidazo[1,5-B]pyridazines as PDE1 inhibitors” (H. Lundbeck A/S, priority 2017, dated 2022).
pIC50: −log10 of the molar value.

Columns and labels:
Format in all cases: biochemical
PDE1A = PDE1A (Homo sapiens (Human), UniProt P54750); assay: PDE1 inhibition assay, PDE1A; conditions: for pIC50: 15 nM tritium labelled cAMP, 1 hr at room temperature, SPA beads; for inhibition at 1 µM: @ 1 μM compound; for inhibition at 10 µM: @ 10 μM compound
Method: (§1) PDE1A, PDE1B and PDE1C assays were performed as follows: the assays were performed in 60 μL samples containing a fixed amount of the PDE1 enzyme (sufficient to convert 20-25% of the cyclic nucleotide substrate), a buffer (50 mM HEPES (4-(2-hydroxyethyl)-1-piperazineethanesulfonic acid) pH 7.6; 10 mM MgCl2; 0.02% Tween20), 0.1 mg/ml BSA (bovine serum albumin), 15 nM tritium labelled cAMP and varying amounts of inhibitors. Reactions were initiated by addition of the cyclic nucleotide substrate, and reactions were allowed to proceed for 1 hr at room temperature before being terminated through mixing with 20 μL (0.2 mg) yttrium silicate SPA beads (PerkinElmer). The beads were allowed to settle for 1 hour in the dark before the plates were counted in a Wallac 1450 Microbeta counter. The measured signals were converted to activity relative to an uninhibited control (100%) and IC50 values were calculated using XIFit (model 205, IDBS).

PDE1B = PDE1B (Homo sapiens (Human), UniProt Q01064); assay: PDE1 inhibition assay, PDE1B; conditions: for pIC50: 15 nM tritium labelled cAMP, 1 hr at room temperature, SPA beads, read-out: PDE1 B, IC50
Method: as §1

PDE1C = PDE1C (Homo sapiens (Human), UniProt Q14123); assay: PDE1 inhibition assay, PDE1C; conditions: for pIC50: 15 nM tritium labelled cAMP, 1 hr at room temperature, SPA beads, read-out: PDE1 C, IC50; for inhibition at 1 µM: @ 1 μM compound, read-out: PDE1 C, % inhibition @ 1 μM; for inhibition at 10 µM: @ 10 μM compound, read-out: PDE1 C, % inhibition @ 10 μM
Method: as §1

PDE1B, sequence (Q01064 whole entry): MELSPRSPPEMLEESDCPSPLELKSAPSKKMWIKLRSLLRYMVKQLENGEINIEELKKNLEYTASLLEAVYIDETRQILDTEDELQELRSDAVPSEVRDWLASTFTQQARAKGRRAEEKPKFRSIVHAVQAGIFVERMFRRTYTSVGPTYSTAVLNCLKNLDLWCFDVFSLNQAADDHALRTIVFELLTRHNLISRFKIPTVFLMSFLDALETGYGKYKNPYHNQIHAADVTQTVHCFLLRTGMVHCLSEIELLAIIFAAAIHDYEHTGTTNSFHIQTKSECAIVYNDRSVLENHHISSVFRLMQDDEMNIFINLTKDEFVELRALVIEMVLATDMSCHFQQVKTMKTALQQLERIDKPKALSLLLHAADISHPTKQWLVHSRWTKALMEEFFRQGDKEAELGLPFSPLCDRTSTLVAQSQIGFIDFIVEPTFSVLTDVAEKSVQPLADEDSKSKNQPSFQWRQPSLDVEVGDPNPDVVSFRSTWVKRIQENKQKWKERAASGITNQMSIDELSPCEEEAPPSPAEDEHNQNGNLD
PDE1A, sequence (P54750 whole entry): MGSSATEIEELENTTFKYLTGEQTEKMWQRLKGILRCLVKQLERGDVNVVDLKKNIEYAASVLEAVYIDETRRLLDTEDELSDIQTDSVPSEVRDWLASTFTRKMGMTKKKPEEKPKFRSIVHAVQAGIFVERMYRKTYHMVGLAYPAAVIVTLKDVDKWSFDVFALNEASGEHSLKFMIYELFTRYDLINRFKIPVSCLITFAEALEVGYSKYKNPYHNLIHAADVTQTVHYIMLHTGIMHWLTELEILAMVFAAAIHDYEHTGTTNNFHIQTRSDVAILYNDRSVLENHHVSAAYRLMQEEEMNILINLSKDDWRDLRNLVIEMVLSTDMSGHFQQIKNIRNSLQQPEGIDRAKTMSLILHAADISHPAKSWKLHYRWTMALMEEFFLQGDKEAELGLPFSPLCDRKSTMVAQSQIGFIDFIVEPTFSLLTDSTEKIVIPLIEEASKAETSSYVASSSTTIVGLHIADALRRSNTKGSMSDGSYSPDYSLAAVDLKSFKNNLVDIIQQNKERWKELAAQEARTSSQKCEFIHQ
PDE1C, sequence (Q14123 whole entry): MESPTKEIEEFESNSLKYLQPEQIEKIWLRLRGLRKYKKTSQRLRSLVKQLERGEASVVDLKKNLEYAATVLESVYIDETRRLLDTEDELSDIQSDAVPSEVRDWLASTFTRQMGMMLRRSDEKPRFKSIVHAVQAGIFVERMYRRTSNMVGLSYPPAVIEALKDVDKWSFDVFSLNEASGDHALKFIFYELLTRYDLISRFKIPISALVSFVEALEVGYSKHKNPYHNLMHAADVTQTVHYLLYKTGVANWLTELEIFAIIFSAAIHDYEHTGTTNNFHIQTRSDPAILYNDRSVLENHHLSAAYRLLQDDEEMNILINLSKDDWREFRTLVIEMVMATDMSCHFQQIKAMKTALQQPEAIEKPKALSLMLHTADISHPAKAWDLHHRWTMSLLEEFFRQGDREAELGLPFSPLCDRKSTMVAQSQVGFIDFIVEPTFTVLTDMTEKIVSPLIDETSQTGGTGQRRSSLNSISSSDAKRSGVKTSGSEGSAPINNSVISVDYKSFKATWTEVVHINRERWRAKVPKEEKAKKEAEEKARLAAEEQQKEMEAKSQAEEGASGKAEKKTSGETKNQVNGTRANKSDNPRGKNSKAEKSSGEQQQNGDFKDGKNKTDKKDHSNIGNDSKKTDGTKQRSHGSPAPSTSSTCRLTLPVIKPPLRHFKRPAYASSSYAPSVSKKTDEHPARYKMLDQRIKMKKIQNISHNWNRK

| pIC50 (PDE1A) | pIC50 (PDE1B) | pIC50 (PDE1C) | inhibition at 1 µM (PDE1A) | inhibition at 1 µM (PDE1C) | inhibition at 10 µM (PDE1A) | inhibition at 10 µM (PDE1C) | inhibition at 10 µM (PDE1B; @ 10 μM compound, read-out: PDE1 B, % inhibition @ 10 μM) | SMILES |
| --- | --- | --- | --- | --- | --- | --- | --- | --- |
|  | 6.77 |  | 70% | 49% |  |  |  | CCOc1ncccc1-c1cc(N2CCCC2)c2c(n1)c(C)nn2C [Example 1, 5-(2-ethoxy-3-pyridyl)-1,3-dimethyl-7-pyrrolidin-1-yl-pyrazolo[4,3-b]pyridine] |
| 6.16 | 6.53 | 5.57 |  |  |  |  |  | CCOc1ncccc1-c1cc(N[C@H]2CCCOC2)c2c(cnn2C(C)C)n1 [Example 9, 5-(2-ethoxy-3-pyridyl)-1-isopropyl-N-[(3S)-tetrahydropyran-3-yl]pyrazolo[4,3-b]pyridin-7-amine] |
| 5.95 | 6.97 | 5.65 |  |  |  |  |  | CCOc1ncccc1-c1cc(NC(C)C)c2c(cnn2C(C)C)n1 [Example 12, 5-(2-ethoxy-3-pyridyl)-N,1-diisopropyl-pyrazolo[4,3-b]pyridin-7-amine] |
| 5.49 | 6.23 | 5.64 |  |  |  |  |  | CCOc1ncccc1-c1ccn2c(C3CCCC3)nc(C)c2n1 [Example 80, 6-cyclopentyl-2-(2-ethoxy-3-pyridyl)-8-methyl-imidazo[1,5-a]pyrimidine] |
| 6.24 | 7.09 | 5.83 |  |  |  |  |  | CCOc1ncccc1-c1cc(N[C@@H]2COC[C@H]2OC)c2c(cnn2C(C)C)n1 (relative stereo) [Example 11, 5-(2-ethoxy-3-pyridyl)-1-isopropyl-N-[trans-4-methoxytetrahydrofuran-3-yl]pyrazolo[4,3-b]pyridin-7-amine] |
| 6.80 | 7.48 | 6.49 |  |  |  |  |  | CCOc1ncccc1-c1ccn2c([C@H](C)CC)nc(C)c2n1 (single isomer, unassigned) [Example 84, 2-(2-ethoxy-3-pyridyl)-8-methyl-6-[1-methylpropyl]imidazo[1,5-a]pyrimidine] |
| 6.08 | 7.00 | 5.66 |  |  |  |  |  | CCOc1ncccc1-c1ccc2c(cnn2C(C)C)n1 [Example 70, 5-(2-ethoxy-3-pyridyl)-1-isopropyl-pyrazolo[4,3-b]pyridine] |
|  | 6.90 | 5.57 |  |  | 71% |  |  | CCOc1ncccc1-c1cc(NC2CCOCC2)c2c(cnn2C(C)C)n1 [Example 10, 5-(2-ethoxy-3-pyridyl)-1-isopropyl-N-tetrahydropyran-4-yl-pyrazolo[4,3-b]pyridin-7-amine] |
| 6.39 | 7.11 | 6.20 |  |  |  |  |  | CCOc1ncccc1-c1ccn2c(C3COC3)nc(C)c2n1 [Example 79, 2-(2-ethoxy-3-pyridyl)-8-methyl-6-(oxetan-3-yl)imidazo[1,5-a]pyrimidine] |
| 6.45 | 7.08 |  |  | 50% |  |  |  | CCOc1ncccc1-c1cc(N2CCCC2)c2c(cnn2C(C)C)n1 [Example 17, 5-(2-ethoxy-3-pyridyl)-1-isopropyl-7-pyrrolidin-1-yl-pyrazolo[4,3-b]pyridine] |
| 5.81 | 6.53 | 5.68 |  |  |  |  |  | CCOc1ncccc1-c1ccn2c(C3CCC3)nc(C)c2n1 [Example 73, 6-cyclobutyl-2-(2-ethoxy-3-pyridyl)-8-methyl-imidazo[1,5-a]pyrimidine] |
| 7.13 | 7.77 | 7.00 |  |  |  |  |  | CCOc1ncccc1-c1nc2c(C)nc(C(C)C)n2cc1C [Example 71, 2-(2-ethoxy-3-pyridyl)-6-isopropyl-3,8-dimethyl-imidazo[1,5-a]pyrimidine] |

Continued, compound first:

| SMILES | pIC50 (PDE1A) | pIC50 (PDE1B) | pIC50 (PDE1C) | inhibition at 1 µM (PDE1A) | inhibition at 1 µM (PDE1C) | inhibition at 10 µM (PDE1A) | inhibition at 10 µM (PDE1C) | inhibition at 10 µM (PDE1B; @ 10 μM compound, read-out: PDE1 B, % inhibition @ 10 μM) |
| --- | --- | --- | --- | --- | --- | --- | --- | --- |
| COc1cc(-c2cc(N[C@@H]3CCOC3)c3c(cnn3C(C)C)n2)c(OC)cn1 [Example 38, 5-(2,5-dimethoxy-4-pyridyl)-1-isopropyl-N-[(3R)-tetrahydrofuran-3-yl]pyrazolo[4,3-b]pyridin-7-amine] | 5.94 | 6.51 | 6.25 |  |  |  |  |  |
| CC(C)n1ncc2nc(-c3cncc(C#N)c3)cc(N[C@@H]3CCOC3)c21 [Example 44, 5-[1-isopropyl-7-[[(3R)-tetrahydrofuran-3-yl]amino]pyrazolo[4,3-b]pyridin-5-yl]pyridine-3-carbonitrile] |  | 5.40 |  |  |  | 33% | 47% |  |
| COc1ncccc1-c1cc(N[C@@H]2CCOC2)c2c(cnn2C(C)C)n1 [Example 28, 1-isopropyl-5-(2-methoxy-3-pyridyl)-N-[(3R)-tetrahydrofuran-3-yl]pyrazolo[4,3-b]pyridin-7-amine] | 6.27 | 6.91 | 5.97 |  |  |  |  |  |
| COc1ccncc1-c1cc(N[C@@H]2CCOC2)c2c(cnn2C(C)C)n1 [Example 31, 1-isopropyl-5-(4-methoxy-3-pyridyl)-N-[(3R)-tetrahydrofuran-3-yl]pyrazolo[4,3-b]pyridin-7-amine] |  | 5.91 |  |  |  | 63% | 76% |  |
| CC(C)n1ncc2nc(-c3ccccc3)cc(N[C@@H]3CCOC3)c21 [Example 27, 1-isopropyl-5-phenyl-N-[(3R)-tetrahydrofuran-3-yl]pyrazolo[4,3-b]pyridin-7-amine] | 5.70 | 6.16 | 5.45 |  |  |  |  |  |
| CCOc1ncc(C#N)cc1-c1cc(N[C@@H]2CCOC2)c2c(cnn2C(C)C)n1 [Example 55, 6-ethoxy-5-[1-isopropyl-7-[[(3R)-tetrahydrofuran-3-yl]amino]pyrazolo[4,3-b]pyridin-5-yl]pyridine-3-carbonitrile] |  | 5.86 | 5.60 |  |  | 69% |  |  |
| CC(C)n1ncc2nc(Cc3ccc(F)cc3)cc(N[C@@H]3CCOC3)c21 [Example 43, 5-[(4-fluorophenyl)methyl]-1-isopropyl-N-[(3R)-tetrahydrofuran-3-yl]pyrazolo[4,3-b]pyridin-7-amine] | 5.54 | 5.91 | 6.21 |  |  |  |  |  |
| COc1ncncc1-c1cc(N[C@@H]2CCOC2)c2c(cnn2C(C)C)n1 [Example 49, 1-isopropyl-5-(4-methoxypyrimidin-5-yl)-N-[(3R)-tetrahydrofuran-3-yl]pyrazolo[4,3-b]pyridin-7-amine] |  | 5.57 | 5.73 |  |  | 43% |  |  |
| CC(C)n1ncc2nc(-c3cccc(OC(F)F)c3)cc(N[C@@H]3CCOC3)c21 [Example 48, 5-[3-(difluoromethoxy)phenyl]-1-isopropyl-N-[(3R)-tetrahydrofuran-3-yl]pyrazolo[4,3-b]pyridin-7-amine] | 5.96 | 6.42 | 5.76 |  |  |  |  |  |
| CC(C)n1ncc2nc(-c3cccc4c3OCO4)cc(N[C@@H]3CCOC3)c21 [Example 32, 5-(1,3-benzodioxol-4-yl)-1-isopropyl-N-[(3R)-tetrahydrofuran-3-yl]pyrazolo[4,3-b]pyridin-7-amine] | 5.89 | 6.55 | 5.92 |  |  |  |  |  |
| CCOc1ccc(-c2cc(N[C@@H]3CCOC3)c3c(cnn3C(C)C)n2)cc1 [Example 33, 5-(4-ethoxyphenyl)-1-isopropyl-N-[(3R)-tetrahydrofuran-3-yl]pyrazolo[4,3-b]pyridin-7-amine] |  |  |  |  |  | 20% | 24% | 46% |
| CC(C)n1ncc2nc(-c3cncnc3)cc(N[C@@H]3CCOC3)c21 [Example 26, 1-isopropyl-5-pyrimidin-5-yl-N-[(3R)-tetrahydrofuran-3-yl]pyrazolo[4,3-b]pyridin-7-amine] |  | 5.44 |  |  |  | 54% | 70% |  |
| CCOc1nccc(C)c1-c1cc(N[C@@H]2CCOC2)c2c(cnn2C(C)C)n1 [Example 34, 5-(2-ethoxy-4-methyl-3-pyridyl)-1-isopropyl-N-[(3R)-tetrahydrofuran-3-yl]pyrazolo[4,3-b]pyridin-7-amine] | 6.42 | 6.80 | 6.24 |  |  |  |  |  |
| CCOc1ncccc1-c1cc(NC2CCC(OC)C2)c2c(cnn2C)n1 (stereo not drawn) [Example 88, 5-(2-ethoxy-3-pyridyl)-N-(3-methoxycyclopentyl)-1-methyl-pyrazolo[4,3-b]pyridin-7-amine] |  | 6.51 |  | 16% | 47% |  |  |  |
| CC(C)n1ncc2nc(-c3ccccc3C#N)cc(N[C@@H]3CCOC3)c21 [Example 41, 2-[1-isopropyl-7-[[(3R)-tetrahydrofuran-3-yl]amino]pyrazolo[4,3-b]pyridin-5-yl]benzonitrile] | 6.02 | 6.61 | 5.77 |  |  |  |  |  |
| CCOc1ncccc1-c1cc(NC2CCOC2)c2c(cnn2C2CCOC2)n1 (stereo not drawn) [Example 2, 5-(2-ethoxy-3-pyridyl)-N,1-di(tetrahydrofuran-3-yl)pyrazolo[4,3-b]pyridin-7-amine] |  | 6.35 | 6.39 | 13% |  |  |  |  |
| CCOc1ncccc1-c1cc(N2CCCC2)c2c(cnn2C2COC2)n1 [Example 4, 5-(2-ethoxy-3-pyridyl)-1-(oxetan-3-yl)-7-pyrrolidin-1-yl-pyrazolo[4,3-b]pyridine] | 6.19 | 7.02 |  |  | 56% |  |  |  |
| COc1ncc(C)cc1-c1cc(N[C@@H]2CCOC2)c2c(cnn2C(C)C)n1 [Example 52, 1-isopropyl-5-(2-methoxy-5-methyl-3-pyridyl)-N-[(3R)-tetrahydrofuran-3-yl]pyrazolo[4,3-b]pyridin-7-amine] |  | 5.88 | 5.74 |  |  | 56% |  |  |
